From patent publication US9512120B2, “Microbicidally active imidazopyridine derivatives” (Syngenta Participations AG, priority 2013, dated 2016)

Assays:
[1] = system: Thanatephorus cucumeris (Rhizoctonia solani); assay: Thanatephorus cucumeris (Rhizoctonia solani) / liquid culture (foot rot, damping-off); assay type: cell-based; conditions: PDB, 24° C., 3-4 days after application, read-out: control of Thanatephorus cucumeris (inhibition of growth, photometric)
Summary of the method: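 Mycelial fragments in potato dextrose broth exposed to test compounds at 200 ppm (from DMSO solution), incubated at 24° C. Growth inhibition read photometrically 3-4 days after application.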

[2] = system: Phaeosphaeria nodorum (Septoria nodorum); assay: Phaeosphaeria nodorum (Septoria nodorum) / wheat / leaf disc preventative (glume blotch); assay type: in vivo; conditions: Parastagonospora nodorum, foliar, wheat leaf segments cv Kanzler, inoculated 2 days after application, assessed 5-7 days after application, read-out: control of Phaeosphaeria nodorum (percent disease control compared to untreated)
Summary of the method: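 Wheat leaf segments (cv Kanzler) on agar sprayed with compound at 200 ppm, inoculated with spores 2 days later. Incubated at 20° C., 75% relative humidity, 12/12 h light/dark; percent disease control versus untreated scored 5-7 days after application.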

[3] = system: Botryotinia fuckeliana (Botrytis cinerea); assay: Botryotinia fuckeliana (Botrytis cinerea) / liquid culture (gray mould); assay type: cell-based; conditions: Vogels broth, 24° C., 3-4 days after application, read-out: control of Botryotinia fuckeliana (inhibition of growth, photometric)
Summary of the method: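 Botrytis cinerea conidia in Vogels broth were added to test compound applied from DMSO at 200 ppm. Incubation at 24 °C; growth inhibition read photometrically 3-4 days after application.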

[4] = system: Mycosphaerella arachidis (Cercospora arachidicola); assay: Mycosphaerella arachidis (Cercospora arachidicola) / liquid culture (early leaf spot); assay type: cell-based; conditions: PDB, 24° C., 4-5 days after application, read-out: control of Mycosphaerella arachidis (inhibition of growth, photometric)
Summary of the method: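 Conidia suspended in potato dextrose broth and added to test compound from DMSO solution at 200 ppm. Incubated at 24 °C; growth inhibition read photometrically 4-5 days after application.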

[5] = system: Monographella nivalis (Microdochium nivale); assay: Monographella nivalis (Microdochium nivale) / liquid culture (foot rot cereals); assay type: cell-based; conditions: PDB, 24° C., 4-5 days after application, read-out: control of Monographella nivalis (inhibition of growth, photometric)
Summary of the method: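 Cryostored conidia in potato dextrose broth were added to test compound dispensed from DMSO at 200 ppm. Plates were kept at 24° C, and growth inhibition was read photometrically 4-5 days after application.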

[6] = system: Puccinia recondita f. sp. Tritici; assay: Puccinia recondita f. sp. tritici / wheat / leaf disc preventative (brown rust); assay type: in vivo; conditions: foliar, wheat leaf segments cv Kanzler, inoculated 1 day after application, assessed 7-9 days after application, read-out: control of Puccinia recondita f. sp. Tritici (percent disease control compared to untreated)
Summary of the method: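 Leaf segments of wheat cv Kanzler on agar were sprayed with formulated compound at 200 ppm and inoculated with spores 1 day later. Incubation was at 19° C, 75% relative humidity and 12/12 h light/dark. Activity was scored 7-9 days after application as percent disease control versus untreated.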

Plasmopara viticola = Plasmopara viticola / grape / leaf disc preventative; assay type: in vivo; conditions: foliar, grape vine leaf disks, inoculated 1 day after application, assessed 6-8 days after application, read-out: control of Plasmopara viticola (percent disease control compared to untreated)
Pyrenophora teres = Pyrenophora teres / barley / leaf disc preventative (net blotch); assay type: in vivo; conditions: foliar, barley leaf segments cv Hasso, inoculated two days after application, assessed 5-7 days after application, read-out: control of Pyrenophora teres (disease control compared to untreated)
Summary of the method: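 Barley cv Hasso leaf segments on agar sprayed with compound at 200 ppm, inoculated with spores two days later. Kept at 20 °C, 65% RH, 12/12 h light; disease control versus untreated scored 5-7 days after application.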

Sclerotinia sclerotiorum = Sclerotinia sclerotiorum liquid culture (cottony rot / white mold); assay type: cell-based; conditions: PDB, 24° C., 3-4 days after application, read-out: control of Sclerotinia sclerotiorum (inhibition of growth, photometric)
Summary of the method: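 Mycelia fragments of Sclerotinia sclerotiorum in potato dextrose broth were added to compound in DMSO. Cultures incubated at 24° C; growth inhibition determined photometrically 3-4 days after application.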

[7] = system: Mycosphaerella graminicola (Septoria tritici); assay: Mycosphaerella graminicola (Septoria tritici) / liquid culture (Septoria blotch); assay type: cell-based; conditions: Zymoseptoria tritici, PDB, 24° C., 4-5 days after application, read-out: control of Mycosphaerella graminicola (inhibition of growth, photometric)
Summary of the method: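 Cryo-stored conidia in potato dextrose broth were added to compound in DMSO at 200 ppm in microtiter plates. Plates were incubated at 24 °C and growth inhibition was measured photometrically 4–5 days after application.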

Fusarium culmorum = assay: microbe, parasite or virus in culture; assay type: cell-based; conditions: read-out: control of Fusarium culmorum (inhibition of growth, photometric)
[8] = system: Glomerella lagenarium (Colletotrichum lagenarium); assay: Glomerella lagenarium (Colletotrichum lagenarium) / liquid culture (anthracnose); assay type: cell-based; conditions: Colletotrichum orbiculare, PDB, 24° C., 3-4 days after application, read-out: control of Glomerella lagenarium (inhibition of growth, photometric)
Summary of the method: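 Cryopreserved conidia suspended in potato dextrose broth were added to compound in DMSO applied at 200 ppm. Plates incubated at 24° C; growth inhibition read photometrically 3-4 days after application.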

Gaeumannomyces graminis = Gaeumannomyces graminis / liquid culture (take-all of cereals); assay type: cell-based; conditions: PDB, 24° C., 4-5 days after application, read-out: control of Gaeumannomyces graminis (inhibition of growth, photometric)
Summary of the method: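 Mycelial fragments in potato dextrose broth were exposed to compound from DMSO at 200 ppm in microtiter plates. Incubation at 24 °C; growth inhibition read photometrically 4-5 days after application.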

Pythium ultimum = Pythium ultimum / liquid culture (seedling damping off); assay type: cell-based; conditions: Globisporangium ultimum, potato dextrose broth, 24° C., 2-3 days after application, read-out: control of Pythium ultimum (inhibition of growth, photometric)
Method: Pythium ultimum/Liquid Culture (Seedling Damping Off) Mycelia fragments and oospores of a newly grown liquid culture of the fungus were directly mixed into nutrient broth (potato dextrose broth). After placing a DMSO solution of test compound into a 96-well format microtiter plate at an application rate of 200 ppm, the nutrient broth containing the fungal mycelia/spore mixture was added. The test plates were incubated at 24° C. and the inhibition of growth was determined photometrically 2-3 days after application.

[9] = system: Blumeria graminis f. Sp. Tritici (Erysiphe graminis f. Sp. Tritici); assay: Blumeria graminis f. sp. tritici / wheat / leaf disc preventative (powdery mildew on wheat); assay type: in vivo; conditions: foliar, wheat leaf segments cv. Kanzler, inoculated 1 day after application, assessed 6-8 days after application, read-out: control of Blumeria graminis (percent disease control compared to untreated)
Method: Blumeria graminis f. Sp. Tritici (Erysiphe graminis f. Sp. Tritici)/Wheat/Leaf Disc Preventative (Powdery Mildew on Wheat):
Wheat leaf segments cv. Kanzler were placed on agar in a 24-well plate and sprayed with the formulated test compound diluted in water at an application rate of 200 ppm. The leaf disks were inoculated by shaking powdery mildew infected plants above the test plates 1 day after application. The inoculated leaf disks were incubated at 20° C. and 60% relative humidity under a light regime of 24 h darkness followed by 12 h/12 h (dark/light) in a climate chamber and the activity of a compound was assessed as percent disease control compared to untreated when an appropriate level of disease damage appears on untreated check leaf segments (6-8 days after application). The following compounds gave at least 80% control of Blumeria graminis at 200 ppm when compared to untreated control leaf disks under the same conditions, which show extensive disease development: 2, 13, 23, 50, 59, 61, 67, 75, 85, 86, 89, 90, 93, 102, 103, 107, 134, 136, 137, 138, 139, 141, 145, 151, 153, 154, 163, 173, 174

Structure (SMILES)	inhibition at 20 ppm [1] [%]	pest or weed control at 200 ppm [2] [%]	inhibition at 20 ppm [3] [%]	inhibition at 20 ppm [4] [%]	inhibition at 20 ppm [5] [%]	pest or weed control at 200 ppm [6] [%]	pest or weed control at 200 ppm (Plasmopara viticola) [%]	pest or weed control at 200 ppm (Pyrenophora teres) [%]	inhibition at 20 ppm (Sclerotinia sclerotiorum) [%]	inhibition at 20 ppm [7] [%]	inhibition at 20 ppm (Fusarium culmorum) [%]	melting point [°C]	inhibition at 20 ppm [8] [%]	inhibition at 20 ppm (Gaeumannomyces graminis) [%]	inhibition at 20 ppm (Pythium ultimum) [%]	pest or weed control at 200 ppm [9] [%]
CCCn1c(-n2ncnc2N)nc2cncc(/C(C)=N\OC/C=C/Cl)c21 [Compound 182]	≥ 80	≥ 80	≥ 80	≥ 80	≥ 80	≥ 80	≥ 80	≥ 80	≥ 80	≥ 80	≥ 80					
CCn1c(-n2ncnc2N)nc2cncc(Br)c21 [Compound 15, 2-(7-bromo-1-ethylimidazo[4,5-c]pyridin-2-yl)-1,2,4-triazol-3-amine]	≥ 80	≥ 80	≥ 80	≥ 80	≥ 80	≥ 80		≥ 80	≥ 80	≥ 80	≥ 80	231 to 232	≥ 80	≥ 80		
CCn1c(-n2ncnc2N)nc2cncc(C#CC3CC3)c21 [Compound 123, 2-[7-(2-cyclopropylethynyl)-1-ethylimidazo[4,5-c]pyridin-2-yl]-1,2,4-triazol-3-amine]	≥ 80	≥ 80	≥ 80	≥ 80	≥ 80	≥ 80		≥ 80	≥ 80	≥ 80	≥ 80	188 to 192	≥ 80	≥ 80		
CCn1c(-n2ncnc2N)nc2cncc(-c3ccccc3C#N)c21 [Compound 85, 2-[2-(5-amino-1,2,4-triazol-1-yl)-1-ethylimidazo[4,5-c]pyridin-7-yl]benzonitrile]	≥ 80		≥ 80			≥ 80		≥ 80		≥ 80			≥ 80	≥ 80	≥ 80	≥ 80
C=C(C)CO/N=C(/C)c1cncc2nc(-n3ncnc3N)n(CC)c12 [Compound 178]	≥ 80		≥ 80	≥ 80	≥ 80	≥ 80	≥ 80	≥ 80	≥ 80	≥ 80	≥ 80			≥ 80		
